Laboratory results: patent US8298793B2, “Methods for isolating proteons from plasma samples” (Auburn University, priority 2002, dated 2012)
“And” between values parts separate entries of the source, which are not always exact repeats. Equal values may be shown once. “Also recorded” adds a separate entry of the source. Where a name gives a salt, the structure may show the parent alone.

What was measured:
[1] = test system: F98 (rat brain glioma) cells; assay: MTT cell proliferation assay on F98 glioma cells; type: cell-based; settings: Staurosporine, 1% FCS, concentration not printed; for Absorbance at 550 nm (MTT), single well: listed as Staurosporine
Description: (§1) The impact of PNCs upon viability of various cultured cells was investigated using the tetrazolium salt (MTT) cell proliferation assay. RG2 ([…] brain glioma), F98 (rat brain glioma), Hs683 (human brain glioma), CTX TNA2 (rat transfected astrocyte), H9c2[2-1] (rat heart myocardium), 27FR (rat skin fibroblast), and SVGp12 (human brain astroglia) cells were obtained from American Type Culture Collection (ATCC) and maintained as recommended by ATCC. MTT cell proliferation assays are commercially available. See, e.g., MTT cell proliferation assay from ATCC. Cells were plated in Dulbecco's modified Eagle's growth medium ([…], Sigma Chemical Inc., St. […] PNCs were isolated from blood obtained from shark, dog, and rabbit using the ultrafiltration protocol described in Example 5. PNCs were autoclaved at 120° C. and 20 psi for 15 minutes before adding to the cell cultures. […] MTT was reduced in metabolically active cells to form purple formazan crystals, which were dissolved by DMSO and quantified by a BIO-RADTM plate reader. For each cell type, a linear relationship between cell number and absorbance is established, enabling accurate, straightforward quantification of changes in proliferation.

[2] = test system: RG2 cells; assay: MTT cell proliferation assay on RG2 glioma cells; type: cell-based, mouse
Description: The impact of PNCs upon viability of various cultured cells was investigated using the tetrazolium salt (MTT) cell proliferation assay. RG2 (mouse brain glioma), F98 (rat brain glioma), Hs683 (human brain glioma), CTX TNA2 (rat transfected astrocyte), H9c2[2-1] (rat heart myocardium), 27FR (rat skin fibroblast), and SVGp12 (human brain astroglia) cells were obtained from American Type Culture Collection (ATCC) and maintained as recommended by ATCC. […] Cells were plated in Dulbecco's modified Eagle's growth medium ([MUT], Sigma Chemical Inc., St. […] PNCs were autoclaved at 120° C. and 20 psi for 15 minutes before adding to the cell cultures. […] MTT was reduced in metabolically active cells to form purple formazan crystals, which were dissolved by DMSO and quantified by a BIO-RADTM plate reader. For each cell type, a linear relationship between cell number and absorbance is established, enabling accurate, straightforward quantification of changes in proliferation. […] Catalog No. S5921), 100 μg, FW 466.5. Dissolve 100 μg staurospine into 214.3 μl • DMSO to equal a 1 mM stock solution. Store at -200° C. […] TX put on late afternoon. • Add staurospine, autoclaved shark PNC, and either 10%, 1%, or 0% FCS treatments to cells and incubate overnight.

[3] = test system: SVGp12 (human brain astroglia) cells; assay: MTT cell proliferation assay on SVG astrocytes; type: cell-based; settings: SVG astro, Staurosporine, 1% FCS, concentration not printed; for Absorbance at 550 nm (MTT), single well: listed as Staurosporine
Description: as §1

[4] = test system: 27FR (rat skin fibroblast) cells; assay: MTT cell proliferation assay on fibroblasts; type: cell-based; settings: Fibro, Staurosporine, 1% FCS
Description: as §1

[5] = test system: CTX TNA2 (rat transfected astrocyte) cells; assay: MTT cell proliferation assay on CTX astrocytes; type: cell-based; settings: CTX astro, Staurosporine, 1% FCS
Description: as §1

[6] = test system: H9c2[2-1] (rat heart myocardium) cells; assay: MTT cell proliferation assay on myocardium cells; type: cell-based; settings: Staurosporine, 1% FCS, concentration not given
Description: as §1

[7] = test system: proteons; assay: Proteon formation in plasma, counted by dark-field microscopy; type: biochemical; settings: for number of proteons visible by dark-field microscopy: added to proteons produced without chaotropic compounds, then 120° C. and 20 psi; for number of proteons with rising concentration of chaotropic compound: plasma with 0, 0.01, 0.1, 1, 4 and 8 M, 120° C., 20 psi, dark-field microscopy
[8] = RG2, 10% FCS, staurosporine 1 μM, Table 6
[9] = RG2, Staurosporine 100 urn, 1% FCS, Table 10
[10] = RG2, Staurosporine, 1% FCS, Table 10, concentration not given
[11] = Table 10, concentration not given
[12] = myocard, Table 10 second myocard column

Q: Which “Ab. Av. (Absorbance at 550 nm, MTT)” value ([1]; Table 10 first F98 column) does the source give for `CN[C@@H]1C[C@H]2O[C@@](C)([C@@H]1OC)n1c3ccccc3c3c4c(c5c6ccccc6n2c5c31)C(=O)NC4` [staurosporine] here?
A: 0.1333

Q: What about the “Absorbance at 550 nm (MTT), single well” value ([1]; Table 10 first F98 column) of the same compound?
A: 0.136 and 0.138 and 0.12 and 0.139

Q: What about the “Ab. Av. (Absorbance at 550 nm, MTT)” value ([1]; Table 10 second F98 column) of the same compound?
A: 0.1085

Q: What about the “Absorbance at 550 nm (MTT), single well” value ([1]; Table 10 second F98 column) of the same compound?
A: 0.108 and 0.109

Q: What about the “Ab. Av. (Absorbance at 550 nm, MTT)” value [2, 8] of the same compound?
A: 0.4053

Q: And the “Absorbance at 550 nm (MTT), single well” value [2, 8]?
A: 0.406 and 0.411 and 0.399

Q: What about the “Ab. Av. (Absorbance at 550 nm, MTT)” value [2, 9] of the same compound?
A: 0.2893

Q: What about the “Absorbance at 550 nm (MTT), single well” value [2, 9] of the same compound?
A: 0.272 and 0.279

Q: And the “Ab. Av. (Absorbance at 550 nm, MTT)” value [2, 10]?
A: 0.1268

Q: What about the “Absorbance at 550 nm (MTT), single well” value [2, 10] of the same compound?
A: 0.149 and 0.12 and 0.119

Q: What about the “Ab Av. (Absorbance at 550 nm, MTT)” value ([2]; RG2, stauro 1% FCS (1 μM per protocol b158), Table 7) of the same compound?
A: 0.09867

Q: What about the “Ab. Av. (Absorbance at 550 nm, MTT)” value ([3]; Table 10 first SVG column) of the same compound?
A: 0.128

Q: And the “Absorbance at 550 nm (MTT), single well” value ([3]; Table 10 first SVG column)?
A: 0.128 and 0.12 and 0.136

Q: What about the “Ab. Av. (Absorbance at 550 nm, MTT)” value ([3]; Table 10 second SVG column) of the same compound?
A: 0.067

Q: What about the “Absorbance at 550 nm (MTT), single well” value ([3]; Table 10 second SVG column) of the same compound?
A: 0.067 and 0.066 and 0.068

Q: And the “Ab. Av. (Absorbance at 550 nm, MTT)” value [4, 11]?
A: 0.2757

Q: What about the “Absorbance at 550 nm (MTT), single well” value [4, 11] of the same compound?
A: 0.296 and 0.257 and 0.275

Q: What about the “Ab. Av. (Absorbance at 550 nm, MTT)” value ([4]; Table 10 second Fibro column, concentration not given) of the same compound?
A: 0.169

Q: What about the “Ab. Av. (Absorbance at 550 nm, MTT)” value [5, 11] of the same compound?
A: 0.1445

Q: What about the “Absorbance at 550 nm (MTT), single well” value [5, 11] of the same compound?
A: 0.122 and 0.118 and 0.126

Q: What about the “Ab. Av. (Absorbance at 550 nm, MTT)” value ([5]; Table 10 first CTX column, concentration not given) of the same compound?
A: 0.3782

Q: What about the “Ab. Av. (Absorbance at 550 nm, MTT)” value ([6]; Myocard, Table 10 first Myocard column) of the same compound?
A: 0.283

Q: And the “Ab. Av. (Absorbance at 550 nm, MTT)” value [6, 12]?
A: 0.16

Q: And the “Absorbance at 550 nm (MTT), single well” value [6, 12]?
A: 0.176

Q: How did the “effect on formation of proteons from plasma” value ([7]; 10 mM EDTA added) turn out when `O=C(O)CN(CCN(CC(=O)O)CC(=O)O)CC(=O)O` [EDTA, ethylene diamine tetra acetate] was run?
A: prevented the formation of proteon; also recorded: production was quenched

Q: Which results are given for `N=C(N)N` [guanidine hydrochloride]?
A: number of proteons visible by dark-field microscopy [7]: great reduction; number of proteons with rising concentration of chaotropic compound [7]: decreased

Q: For `NC(N)=O` [urea], which “number of proteons visible by dark-field microscopy” value [7] is on record?
A: great reduction

Q: And the “number of proteons with rising concentration of chaotropic compound” value [7]?
A: decreased
